Experimental data: patent US20100331577A1, “Method for radio-labeling serotonin transporter ligand, 123I-IADM” (ATOMIC ENERGY COUNCIL-INSTITUTE OF NUCLEAR ENERGY RESEARCH, priority 2008, published 2010)

Tests used:
serotonin transporter [1] = experiment: SPECT and MRI imaging of the brain of an ape; assay type: in vivo
Source text: Referring to FIG. 9, the ^123I-ADAM is used to provide a SPECT image and a MRI image 82 of an ape. […] The concentration of the serotonin transporter in the hypothalamus is higher than in the cerebellum 83. The ^123I-ADAM 13 can effectively be used to detect the serotonin transporter.

[2] = radiochemistry purity over time measured by HPLC (stability); assay type: physicochemical; conditions: main peak 63
Procedure: Referring to FIG. 4, an HPLC is used to measure the radiochemistry purity of the ^123I-ADAM 13. Reverse-phase high-performance liquid chromatography equipped with a radiodetector is used for the qualitative and quantitative assessment of the ^123I-ADAM 13. The retention time of the ^123I-ADAM 13 is 18 minutes.
Referring to FIG. 6, the radiochemistry purity of the ^123I-ADAM after 0 hour is shown in a chart. At 61, the radiochemistry purity is 0.67%. At 62, the radiochemistry purity is 1.58%. At 63, the radiochemistry purity is 97.78%.
Referring to FIG. 7, the radiochemistry purity of the ^123I-ADAM after 48 hours is shown in a chart. At 64, the radiochemistry purity is 4.41%. At 65, the radiochemistry purity is 1.55%. At 66 the radiochemistry purity is 94.04%. After 48 hours, the radiochemistry purity is still higher than 90%.

serotonin transporter [3] = target: T1, serotonin transporter (Rattus norvegicus, UniProt P31652); experiment: microSPECT and microCT imaging of the brain of a SD rat; assay type: in vivo
T1 construct: from tissue; host or cells: brain of a SD rat (in vivo imaging)
Source text: Referring to FIG. 8, a microCT image 71 and a microSPECT image 72 of the brain of a SD rat are shown. A fused image 73 of the microCT image and the microSPECT image 72 is also shown. […] The concentration of the serotonin transporter in the midbrain is higher than in the cerebellum 73. The ^123I-ADAM 13 can effectively be used to detect the serotonin transporter.

[4] = cited from earlier work
serotonin transporter [5] = target: T2, serotonin transporter (Homo sapiens, UniProt P31645); conditions: cited from earlier work
serotonin transporter [6] = target: T2, serotonin transporter; conditions: cited from earlier work; for clarity of the image obtained: compared with ^125I-IDAM; for specific binding affinity: imaging of the serotonin transporter
SERT = SERT (Homo sapiens, UniProt P31645); conditions: in vitro specific binding assay; cited from earlier work
SERT, sequence (P31645 whole entry): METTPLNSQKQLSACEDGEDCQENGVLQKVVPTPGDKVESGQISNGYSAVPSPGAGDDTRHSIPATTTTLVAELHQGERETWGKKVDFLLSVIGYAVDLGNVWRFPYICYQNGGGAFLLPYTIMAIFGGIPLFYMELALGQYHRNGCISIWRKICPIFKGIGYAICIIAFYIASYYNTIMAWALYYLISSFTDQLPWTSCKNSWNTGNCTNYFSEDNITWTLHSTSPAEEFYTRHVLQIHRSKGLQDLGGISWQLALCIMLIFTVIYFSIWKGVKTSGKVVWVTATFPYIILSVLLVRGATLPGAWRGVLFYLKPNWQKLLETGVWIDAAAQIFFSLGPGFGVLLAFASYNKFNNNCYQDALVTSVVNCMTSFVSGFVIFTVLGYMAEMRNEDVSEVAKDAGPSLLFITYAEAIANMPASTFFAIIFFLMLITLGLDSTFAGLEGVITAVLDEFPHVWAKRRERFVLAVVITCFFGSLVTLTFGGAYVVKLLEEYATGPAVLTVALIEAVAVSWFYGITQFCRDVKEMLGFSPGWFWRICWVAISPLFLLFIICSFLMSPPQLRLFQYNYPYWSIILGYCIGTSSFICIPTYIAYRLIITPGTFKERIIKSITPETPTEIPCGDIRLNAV

T2 sequence (P31645 whole entry): as above
T1 sequence (P31652 whole entry): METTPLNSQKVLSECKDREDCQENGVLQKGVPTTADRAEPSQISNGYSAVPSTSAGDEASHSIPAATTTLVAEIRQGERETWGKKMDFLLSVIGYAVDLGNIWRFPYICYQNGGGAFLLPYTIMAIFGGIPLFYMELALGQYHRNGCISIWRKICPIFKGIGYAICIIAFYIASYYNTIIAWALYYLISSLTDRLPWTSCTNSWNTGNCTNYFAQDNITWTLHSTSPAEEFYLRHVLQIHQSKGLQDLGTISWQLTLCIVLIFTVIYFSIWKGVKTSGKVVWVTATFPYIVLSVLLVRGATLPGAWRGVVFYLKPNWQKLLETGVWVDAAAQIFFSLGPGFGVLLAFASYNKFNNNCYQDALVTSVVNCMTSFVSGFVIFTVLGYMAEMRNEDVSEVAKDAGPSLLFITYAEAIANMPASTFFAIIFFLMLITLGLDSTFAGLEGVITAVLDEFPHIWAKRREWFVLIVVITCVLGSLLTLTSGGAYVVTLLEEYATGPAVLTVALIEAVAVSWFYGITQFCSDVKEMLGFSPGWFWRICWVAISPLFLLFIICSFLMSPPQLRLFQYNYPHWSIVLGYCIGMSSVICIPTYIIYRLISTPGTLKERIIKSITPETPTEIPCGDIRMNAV

CN(C)Cc1ccccc1Sc1ccc([123I])cc1N [^123I-ADAM]
affinity with the hypothalamus of the midbrain versus cerebellum (serotonin transporter [1]): more affinitive than with the cerebellum
radiochemistry purity after 0 hour [2]: 97.78%
affinity with the midbrain versus cerebellum (serotonin transporter [3]): better than with the cerebellum

CN(C)Cc1ccccc1Sc1ccc([125I])cc1N [^125I-ADAM]
absorption by the brain ([4]; compared with ^125I-IDAM): less than ^125I-IDAM
affinity with the serotonin transporter (serotonin transporter [5]): much better than that of ^125I-IDAM
clarity of the image obtained (serotonin transporter [6]): clearer
specific binding affinity (serotonin transporter [6]): much higher than ^125I-IDAM

CN(C)Cc1ccccc1Sc1ccc([125I])cc1CO [^125I-IDAM]
absorption by a brain ([4]; two minutes after injection): 2.44%
specific binding affinity (serotonin transporter [6]): 1.75

CN(C)Cc1ccccc1Oc1ccc([125I])cc1CO [^125I-ODAM]
clarity of the image obtained (serotonin transporter [6]): less clear than with the use of ^125I-IDAM
specific binding affinity with SERT (SERT): good
